Experiments:
[1] = biological target: cAMP-dependent protein kinase (PKA) (Homo sapiens, UniProt P22694+P17612+P22612); test: Inhibition of cAMP-dependent protein kinase (PKA); type: protein assay
[2] = biological target: T1, Protein kinase C epsilon type (Homo sapiens, UniProt Q02156); test: Inhibition of protein kinase C epsilon
T1 sequence (Q02156 whole entry): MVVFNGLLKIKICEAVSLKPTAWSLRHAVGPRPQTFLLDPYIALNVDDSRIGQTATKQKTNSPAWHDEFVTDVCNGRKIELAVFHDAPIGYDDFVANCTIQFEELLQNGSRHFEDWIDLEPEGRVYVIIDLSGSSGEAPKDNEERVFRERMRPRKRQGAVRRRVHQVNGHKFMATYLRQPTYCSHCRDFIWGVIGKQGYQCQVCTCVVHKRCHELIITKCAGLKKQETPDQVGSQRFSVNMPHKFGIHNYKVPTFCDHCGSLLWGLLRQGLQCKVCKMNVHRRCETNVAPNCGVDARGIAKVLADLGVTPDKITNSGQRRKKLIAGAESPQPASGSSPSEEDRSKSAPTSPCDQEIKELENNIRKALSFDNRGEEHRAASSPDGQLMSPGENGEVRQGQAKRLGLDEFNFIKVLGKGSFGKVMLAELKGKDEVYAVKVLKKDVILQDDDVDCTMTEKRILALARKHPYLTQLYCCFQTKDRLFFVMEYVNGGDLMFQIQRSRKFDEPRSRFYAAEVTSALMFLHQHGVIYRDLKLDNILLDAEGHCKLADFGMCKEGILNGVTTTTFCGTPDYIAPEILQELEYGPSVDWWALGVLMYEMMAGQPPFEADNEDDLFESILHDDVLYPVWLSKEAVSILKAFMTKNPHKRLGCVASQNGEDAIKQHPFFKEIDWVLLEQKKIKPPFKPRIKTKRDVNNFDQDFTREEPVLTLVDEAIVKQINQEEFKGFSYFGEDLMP

[3] = biological target: T2, Protein kinase C eta type (Homo sapiens, UniProt P24723); test: Inhibition of protein kinase C eta
[4] = biological target: T3, Protein kinase C gamma type (Homo sapiens, UniProt P05129); test: Inhibition of protein kinase C gamma
[5] = biological target: T4, Protein kinase C beta type (Homo sapiens, UniProt P05771); test: Inhibition of protein kinase C beta 1
[6] = biological target: T4, Protein kinase C beta type; test: Inhibition of protein kinase C beta II
[7] = biological target: T5, Protein kinase C delta type (Homo sapiens, UniProt Q05655); test: Inhibition of protein kinase C delta
[8] = biological target: Protein kinase C alpha type (Homo sapiens, UniProt P17252); test: Inhibition of protein kinase C alpha
[9] = biological target: T4, Protein kinase C beta type; test: Inhibition of Protein kinase C beta 2
[10] = biological target: T5, Protein kinase C delta type; test: Inhibition of Protein kinase C delta
[11] = biological target: T3, Protein kinase C gamma type; test: Inhibition of Protein kinase C gamma
[12] = biological target: T2, Protein kinase C eta type; test: Inhibition of Protein kinase C eta
[13] = biological target: T4, Protein kinase C beta type; test: Inhibition of Protein kinase C beta 1

T2 sequence (P24723 whole entry): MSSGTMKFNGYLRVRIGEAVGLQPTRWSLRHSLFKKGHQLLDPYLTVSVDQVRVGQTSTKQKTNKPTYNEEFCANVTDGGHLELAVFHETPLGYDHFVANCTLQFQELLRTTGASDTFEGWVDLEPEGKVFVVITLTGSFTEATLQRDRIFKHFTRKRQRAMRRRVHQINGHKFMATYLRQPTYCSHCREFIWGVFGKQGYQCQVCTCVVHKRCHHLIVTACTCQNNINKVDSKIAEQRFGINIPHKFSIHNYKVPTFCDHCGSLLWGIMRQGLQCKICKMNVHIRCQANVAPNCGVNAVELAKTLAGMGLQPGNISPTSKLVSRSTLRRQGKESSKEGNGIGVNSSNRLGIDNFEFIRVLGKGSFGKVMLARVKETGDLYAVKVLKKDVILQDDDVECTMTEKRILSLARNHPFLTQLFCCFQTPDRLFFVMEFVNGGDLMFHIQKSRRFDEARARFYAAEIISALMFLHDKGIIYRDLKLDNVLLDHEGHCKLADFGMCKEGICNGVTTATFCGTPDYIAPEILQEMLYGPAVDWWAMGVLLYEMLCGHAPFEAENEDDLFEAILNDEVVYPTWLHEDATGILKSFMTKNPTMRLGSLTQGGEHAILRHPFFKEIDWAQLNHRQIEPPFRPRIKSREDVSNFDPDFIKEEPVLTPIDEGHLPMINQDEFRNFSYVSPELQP
T5 sequence (Q05655 whole entry): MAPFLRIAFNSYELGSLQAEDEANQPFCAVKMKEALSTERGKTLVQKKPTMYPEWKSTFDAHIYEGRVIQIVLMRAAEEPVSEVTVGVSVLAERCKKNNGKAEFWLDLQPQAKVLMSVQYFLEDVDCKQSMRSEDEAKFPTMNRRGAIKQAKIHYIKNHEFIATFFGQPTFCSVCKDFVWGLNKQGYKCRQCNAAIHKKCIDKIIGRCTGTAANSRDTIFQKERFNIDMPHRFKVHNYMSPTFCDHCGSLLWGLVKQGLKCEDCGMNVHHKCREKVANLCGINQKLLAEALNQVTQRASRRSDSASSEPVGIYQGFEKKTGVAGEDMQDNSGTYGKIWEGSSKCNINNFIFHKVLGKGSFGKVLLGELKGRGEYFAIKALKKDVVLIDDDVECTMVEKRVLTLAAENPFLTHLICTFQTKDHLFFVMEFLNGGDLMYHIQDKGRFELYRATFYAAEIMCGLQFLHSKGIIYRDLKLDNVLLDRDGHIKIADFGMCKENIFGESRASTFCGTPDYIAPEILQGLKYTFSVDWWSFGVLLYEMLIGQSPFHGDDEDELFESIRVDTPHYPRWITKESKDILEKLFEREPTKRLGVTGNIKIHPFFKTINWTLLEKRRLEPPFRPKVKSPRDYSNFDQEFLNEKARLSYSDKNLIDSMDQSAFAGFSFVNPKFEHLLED
T4 sequence (P05771 whole entry): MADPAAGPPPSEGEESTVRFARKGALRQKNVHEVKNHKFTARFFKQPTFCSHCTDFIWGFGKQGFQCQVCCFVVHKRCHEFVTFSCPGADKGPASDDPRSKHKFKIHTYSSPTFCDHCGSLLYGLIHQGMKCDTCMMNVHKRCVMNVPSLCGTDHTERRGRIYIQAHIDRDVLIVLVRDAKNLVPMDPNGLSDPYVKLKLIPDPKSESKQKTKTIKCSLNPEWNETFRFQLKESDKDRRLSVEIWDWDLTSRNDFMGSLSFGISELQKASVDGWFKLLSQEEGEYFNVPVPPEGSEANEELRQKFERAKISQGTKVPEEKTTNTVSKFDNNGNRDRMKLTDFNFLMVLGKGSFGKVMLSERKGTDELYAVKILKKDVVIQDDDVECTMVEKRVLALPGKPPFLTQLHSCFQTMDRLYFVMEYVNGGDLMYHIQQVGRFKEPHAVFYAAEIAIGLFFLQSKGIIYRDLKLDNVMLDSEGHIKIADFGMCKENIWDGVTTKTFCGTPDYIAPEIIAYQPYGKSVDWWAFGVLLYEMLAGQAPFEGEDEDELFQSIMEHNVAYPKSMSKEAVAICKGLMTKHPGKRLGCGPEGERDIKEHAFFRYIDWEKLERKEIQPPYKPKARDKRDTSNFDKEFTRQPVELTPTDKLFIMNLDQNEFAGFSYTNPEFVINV

Compound | IC50 [1] | IC50 [2] | IC50 [3] | IC50 [4] | IC50 [5] | IC50 [6] | IC50 [7] | IC50 [8] | IC50 [9] | IC50 [10] | IC50 [11] | IC50 [12] | IC50 [13]
O=C(N[C@@H]1c2ccccc2C[C@@H]1OC(=O)c1cc(O)c(C(=O)c2c(O)cccc2C(=O)O)c(O)c1)c1ccc(O)cc1 | 50 µM | 1.9 µM | < 0.05 µM | 0.05 µM | 0.06 µM | 0.05 µM | 0.05 µM | 0.29 µM | – | – | – | – | –
O=C(N[C@@H]1CNCC1OC(=O)c1cc(O)c(C(=O)c2c(O)cccc2C(=O)O)c(O)c1)c1ccc(O)cc1 (stereo not given in full) | 0.07 µM | 0.01 µM | 0.004 µM | 0.012 µM | 0.01 µM | 0.033 µM | 0.005 µM | 0.022 µM | – | – | – | – | –
O=C(N[C@@H]1c2ccccc2CC1OC(=O)c1cc(O)c(C(=O)c2c(O)cccc2C(=O)O)c(O)c1)c1ccc(O)cc1 (mixture of isomers) | 50 µM | 0.31 µM | < 0.01 µM | 0.16 µM | 0.2 µM | 0.17 µM | 0.03 µM | 0.16 µM | – | – | – | – | –
O=C(NC1CNCCCC1OC(=O)c1cc(O)c(C(=O)c2c(O)cccc2C(=O)O)c(O)c1)c1ccc(O)cc1 (racemic) | – | – | – | – | – | – | – | 0.37 µM | 0.26 µM | 0.05 µM | 0.14 µM | < 0.1 µM | 0.08 µM
O=C(N[C@H]1CNCCCC1OC(=O)c1cc(O)c(C(=O)c2c(O)cccc2C(=O)O)c(O)c1)c1ccc(O)cc1 (stereo not given in full) | – | – | – | – | – | – | – | 3 µM | 0.88 µM | 0.42 µM | 0.4 µM | 0.26 µM | 0.5 µM
O=C(N[C@H]1c2ccccc2CC1OC(=O)c1cc(O)c(C(=O)c2c(O)cccc2C(=O)O)c(O)c1)c1ccc(O)cc1 (mixture of isomers) | > 100 µM | 25 µM | – | 34 µM | 37 µM | 37 µM | 21 µM | > 50 µM | – | – | – | – | –
O=C(N[C@@H]1c2ccccc2C[C@H]1OC(=O)c1cc(O)c(C(=O)c2c(O)cccc2C(=O)O)c(O)c1)c1ccc(O)cc1 | – | > 50 µM | 35 µM | 32 µM | > 50 µM | 39 µM | 32 µM | > 50 µM | – | – | – | – | –

Further molecules by falling IC50 [8], results first:

IC50 [1] | IC50 [2] | IC50 [3] | IC50 [4] | IC50 [5] | IC50 [6] | IC50 [7] | IC50 [8] | IC50 [9] | IC50 [10] | IC50 [11] | IC50 [12] | IC50 [13] | Compound
– | 0.48 µM | < 0.025 µM | < 0.03 µM | < 0.029 µM | < 0.025 µM | < 0.025 µM | 0.07 µM | – | – | – | – | – | O=C(N[C@@H]1Cc2ccccc2C1OC(=O)c1cc(O)c(C(=O)c2c(O)cccc2C(=O)O)c(O)c1)c1ccc(O)cc1 (mixture of isomers)
– | 0.05 µM | 0.0006 µM | 0.01 µM | 0.04 µM | 0.05 µM | 0.0009 µM | 0.04 µM | – | – | – | – | – | O=C(N[C@@H]1CCCC1OC(=O)c1cc(O)c(C(=O)c2c(O)cccc2C(=O)O)c(O)c1)c1ccc(O)cc1 (stereo not given in full)
– | – | – | – | – | – | – | 0.03 µM | 0.01 µM | 0.004 µM | 0.01 µM | 0.003 µM | 0.01 µM | O=C(N[C@@H]1CNCCCC1OC(=O)c1cc(O)c(C(=O)c2c(O)cccc2C(=O)O)c(O)c1)c1ccc(O)cc1 (stereo not given in full)

Source: ChEMBL document CHEMBL1129020, “Synthesis and protein kinase C inhibitory activities of indane analogs of balanol” (Bioorg Med Chem Lett, 1996)
